For series [1] the following is noted: blood; cited from earlier work.
Series [2] concerns db/db mice. The series can be described thus: food intake and post-prandial blood glucose, db/db mice. The series is classed as in vivo. The method, then:
(§1) Mice (N=5 per group) were conditioned to eat once daily (9-10 am) for five days. […] Food intake and blood glucose levels were measured 2, 4, 7 and 24 h after peptide administration.

A short description of series [3]: c-Fos activation in brain after IP injection. In kind it is in vivo, mice. The settings on record: IP 1 nmol/kg. As for the experimental part:
(§2) Briefly, mice that received IP injections were anesthetized with isoflurane 2 h later and the mice that received ICV injections were anesthetized 1.5 and 24 h later. Intracardiac perfusion with ice-cold 4% paraformaldehyde was immediately carried out. Brains were removed immediately at the end of perfusion, kept in ice-cold 4% parafor maldehyde for 72 h, and then transferred to a solution containing 4% paraformaldehyde and 25% sucrose until they floated. Each brain as cut into 30 μm sections using a sliding microtome with a freezing stage. Brain sections from each animal were placed in a 12-well plate and then processed for immunocytochemistry. The free-floating sections from each animal were first incubated in 0.3% H2O2 for 30 min and then washed 3 times in PBS for 5 min/rinse. Thereafter the sections were incubated in blocking serum (normal goat serum/PBS/0.1% Triton) for 45 min at room temperature. The sections were stained for c-Fos with an antibody directed against the amino acid residues 4-17 in rabbit anti-human c-Fos (Calbiochem, 1:30,000) for 48 h at 4° C. The sections were then washed 6 times with PBS/0.1% Triton before incubation for 1.5 h at room temperature with biotinylated goat anti-rabbit IgG (1:600) in blocking serum (Vector Laboratories). Thereafter the sections were visualized with DAB (Vectastain ABC kit) and developed until the color reached the required intensity in the control sections. The reaction was stopped by immersion of the slides in distilled water. After the staining was completed, sections were mounted on superfrost slides (Fisher Scientific), air-dried for 1-2 days and coverslipped with Permount. Sections were examined using light microscopy to identify c-Fos-positive cells.

Series [4] has as its system c-Fos. Nature of the series: c-Fos activation in brain after IP injection. The series is classed as in vivo, mice. The method, then:
as §2

Series [5] deals with RIN 1046-38 cells. The series can be described thus: insulin secretion in RIN 1046-38 cells. The series is classed as cell-based. The settings on record: rat insulinoma cells, concentration-dependent. As for the experimental part: Rat insulinoma cell line, RIN1046-38 cells, was obtained from Dr. Samuel A. Clark and cultured with 5% CO2 at 37° C. in M199 medium (Cellgro) as previously described (Wang et al., 2001, Endocrinology, 142: 1820-1827). […] Exendin-9-39 (1 μmol/l: Bachem), an inhibitor of the GLP-1R. was also added overnight to one set of experiments. The supernatant was then collected and saved at −80° C. for determination of insulin content by ELISA (Crystal Chems). Cells were lysed and the protein content was quantified using the Bradford method.

In series [6] the test system is isolated rat islets. Nature of the series: insulin secretion in isolated rat islets. The series is classed as cell-based. The settings on record: concentration-dependent. As for the experimental part:
Islets from Sprague-Dawley rats were isolated as we previously described, with some modification (Wang et al., 1997, J. Clin. Invest. 99: 2883-2889). Briefly, pancreata were digested by Collagenase Type XI (Sigma) and islets separated through a Ficoll-Paque gradient (Amersham Biosciences). The isolated islets were washed several times using Hanks Balanced Salts Solution (Biosource) containing 0.2% bovine serum albumin (BSA, Sigma), hand-picked and cultured overnight with 5% CO2 at 37° C. in M199 medium supplemented with 5 mM glucose. Rat islets were then treated similarly to (30-40 per well) to RIN cells as described above.

A short description of series [7]: GLP-1-Tf in serum of cynomolgus monkeys (Example 4). The series is classed as in vivo, cynomolgus monkeys (Macaca fascicularis). To be noted: cAMP in CHO/GLP-1R.
Series [8] deals with non-diabetic mice. The series can be described thus: IPGTT in non-diabetic mice after IP administration. To be noted: IP 1 and 10 mg/kg. The series is classed as in vivo. As for the experimental part: Intraperitoneal (IP) glucose tolerance testing (IPGTT) (0.5 g/kg body weight) was carried out after an overnight fast in non-diabetic mice. Tf and GLP-1-Tf were administered IP 30 min before the glucose injection. Blood glucose levels (Glucometer Elite, Bayer) were measured at 0, and 30 and 60 min and plasma insulin levels at 0 and 30 min after the IPGTT.

In series [9] the test system is non-diabetic mice. Nature of the series: blood glucose after SC administration, ad libitum fed non-diabetic mice. The series is classed as in vivo.
For series [10], the system named is diabetic db/db mice. Nature of the series: overnight fast and IPGTT in diabetic mice after SC administration. The series is classed as in vivo. The method, then:
A group of diabetic mice were given Tf or GLP-1-Tf via SC administration at 9 pm, fasted overnight and an IPGTT performed the next morning. The fasted Tf-treated animals had lower fasting blood glucose than ad libitum fed animals (238±39 versus 358±23 mg/dl; compare 0 time/fasted animals of FIG. 10c with 0 time/fed animals of FIG. 10a), and additionally, the animals given 1 or […] had lower fasting blood glucose (132±27 mg/dl) than those given Tf alone.

Series [11] deals with non-diabetic mice. The series can be described thus: food intake and post-prandial blood glucose, non-diabetic mice. In kind it is in vivo. As for the experimental part: as §1
Series [12] deals with db/db mice. Nature of the series: β-cell proliferation (BrdU) and β-cell mass in db/db mice. In kind it is in vivo. The settings on record: for increase in total β-cell mass: 10 mg/kg. As for the experimental part: db/db mice, 6 per time point, received one IP injection of Tf (10 mg/kg) or GLP-1-Tf (10 mg/kg) and were sacrificed 1, 2 and 3 days later for measurement of β-cell proliferation and 3, 5, 8 and 10 days later for measurement of islet mass. Sixty mg/kg 5-bromo-2-deoxyuridine (BrdU, Sigma) was injected IP 6 hours before sacrifice. BrdU is a thymidine analog that is incorporated during S-phase of cell mitosis. Pancreata were removed, fixed overnight in 4% buffered formalin, processed for embedding in paraffin and histological sections (4 μm) mounted on poly-1-lysine-coated glass slides. BrdU was detected with a BrdU antibody (Sigma, 1:500 and also confirmed with Zymed antibody, 1:250) and BrdU staining kit (Zymed Laboratories Inc). Five to six hundred islets from each condition were then visualized and the number of islets that contained BrdU+ cells as well as the percent BrdU+ nuclei per total number of islet cells was quantified. For insulin staining and determination of β-cell mass histological sections were treated with a guinea-pig insulin antibody (Linco). Antibody binding was visualized with 3,3-diaminobenzidine (DAB) and sections counterstained with hematoxylin (Vectastain ABC kit, Vector Laboratories, using goat anti-guinea pig IgG). The sections were examined using a video camera connected to a computer with imaging software. Sectioned tissue images were acquired through a 2.5× objective of a phase contrast light microscope (Carl Zeiss) and digitized by means of a Sony Power HAD digital camera (an average of 20-30 images per section). The total pancreatic area and β-cell positive area for every image were quantified using MetaMorph 4.6.3 software (Universal Imaging Inc., West Chester).

For series [13], the system named is c-Fos. The series can be described thus: c-Fos activation in brain after ICV injection. In kind it is in vivo, mice. As for the experimental part: Briefly, mice that received IP injections were anesthetized with isoflurane 2 h later and the mice that received ICV injections were anesthetized 1.5 and 24 h later. Intracardiac perfusion with ice-cold 4% paraformaldehyde was immediately carried out. Brains were removed immediately at the end of perfusion, kept in ice-cold 4% parafor maldehyde for 72 h, and then transferred to a solution containing 4% paraformaldehyde and 25% sucrose until they floated. Each brain as cut into 30 μm sections using a sliding microtome with a freezing stage. Brain sections from each animal were placed in a 12-well plate and then processed for immunocytochemistry. The free-floating sections from each animal were first incubated in 0.3% H2O2 for 30 min and then washed 3 times in PBS for 5 min/rinse. Thereafter the sections were incubated in blocking serum (normal goat serum/PBS/0.1% Triton) for 45 min at room temperature. The sections were stained for c-Fos with an antibody directed against the amino acid residues 4-17 in rabbit anti-human c-Fos (Calbiochem, 1:30,000) for 48 h at 4° C. […]
In another series of experiments, Tf and GLP-1-Tf were administered intracerebrovenitricular (ICV) and c-Fos activation assessed 1.5 and 24 hours later.

In series [14] the test system is diabetic db/db mice.
Protocol: Male diabetic db/db mice (C57BLKS/J-Lepr^db/Lepr^db) lacking a functioning leptin receptor and their non-diabetic heterozygous littermates were purchased at 4 weeks of age from Jackson Laboratories (Bar Harbor). They were housed, two per cage and fed ad libitum for at least five days before any testing. The same mice were caged together for the duration of the studies.
Plasma insulin levels were measured at 1 and 4 hours.
The mark [15] stands for this setting: compared to hTf-treated animals.
[16] abbreviates: 10 mg/kg, 2 h after administration.

The values that follow come from US20060205037A1, “Modified transferrin fusion proteins” (priority 2003, published 2006).

For “Carbohydrate deficient transferrin: transferrin form elevated in the blood of alcoholic individuals”, in [1], the half life was 14 to 17 days.

For exendin-4 [reference compound], in series [2] (1 nmol/kg IP), the “food intake in the remaining 17 h” value is “caused a decrease in food intake” and the “time for which essentially all measurable food consumption was prevented” value is on record as 7 h. Moreover, in series [3], the “AP c-Fos response compared to GLP-1-Tf” value is listed as “much more robust”. Also, the “brain areas with c-Fos activation” value in [4] (IP 1 nmol/kg) is reported as “activated similar areas to GLP-1-Tf in all injected animals”.

Consider “glycosylated transferrin: glycosylated serum transferrin”, for which the half life in series [1] is 7 to 10 days.

Turning to “pREX0585: nL GLP-1 (7-37; A8G, K34A) (PEAPTD)2 mTf; mTf lacking N-glycosylation at sites 413 and 611”, the insulin secretion entry is “stimulate insulin secretion” in series [5], “stimulate insulin secretion” in series [6] and “enhanced insulin secretion” in [8] (30 min before glucose). In series [7], the “activity of GLP-1-Tf in serum from the injected monkeys on CHO/GLP-1R” value is recorded as “biologically active”. In series [8] (IPGTT), the peak blood glucose result is “decreased”. Also, in [9], the “time for blood glucose to rise to pre-administration levels” value was ≤ 24 h. In [9] (ad libitum fed), the “blood glucose concentration and insulin secretion” value was “dose-dependently reduced blood glucose concentration and increased insulin secretion”. The “persistence of low blood glucose” value in [9] (higher dose 10 mg/kg) is given as “up to 36 hours”. The blood glucose level in [9] (within 3 hours of administration) came to 70 mg/dL. Besides, the fasting blood glucose in series [10] (SC at 9 pm, fasted overnight, GLP-1-Tf 1 or 10 mg) stood at 132 ± 27 mg/dL. Besides, in [10] (setting [15]), the “glucose levels after the IPGTT” value was “lower glucose levels”. Further, in series [10] (setting [15]), the “plasma insulin levels after the IPGTT” value is “higher plasma insulin levels”. Also, the “post-prandial blood glucose levels” value in series [11] (0.1, 1 and 10 mg/kg, compared to Tf only) is given as “lower”; in series [2] (0.1, 1 and 10 mg/kg, compared to Tf treatment), “lowered post-prandial blood glucose levels”. Further, the “time for which food intake was decreased by approximately half” value in [11] (IP 1 mg/kg) was 2 h; in series [11] (IP 10 mg/kg) it was “up to 7 h”; in series [2] (IP 1 and 10 mg/kg) it was 2 h. For the same substance, the “number of BrdU+ nuclei in islets 24 hours after injection” value in series [12] (10 mg/kg IP, compared to Tf) is listed as “clear increase in the number of BrdU+ nuclei”. Besides, the “islets with 1 or more BRDU+ nuclei” value in series [12] (10 mg/kg IP, third day) is recorded as “all islets”. Further, in [12] (10 mg/kg IP, third day, vs Tf, p<0.01), the “increase in BRDU+ nuclei” value is 4.7 fold. Moreover, the “increase in total β-cell mass” value in [12] (3 days, compared to Tf) came to 1.7 fold; in series [12] (5 days, compared to Tf) it was 2.2 fold; in [12] (8 days, compared to Tf), 4.1 fold; in series [12] (10 days, compared to Tf) it was 4.3 fold. Also, in series [4] (1 mg/kg), the “c-Fos activation, AP” value is on record as 0/6. Further, the “c-Fos activation, NTS” value in series [4] (1 mg/kg) was 6/6. Further, the “c-Fos activation, PVH” value in [4] (1 mg/kg) is listed as 6/6. Further, in series [4] (setting [16]), the “c-Fos activation, area postrema (AP)” value is listed as 4/6. For the same substance, the “c-Fos activation, nuclei of the solitary tract (NTS)” value in series [4] (setting [16]) is given as 6/6. The “c-Fos activation, paraventricular nuclei of the hypothalamus (PVH)” value in [4] (setting [16]) was 6/6. The “c-Fos activation ninety minutes after ICV injection” value in series [13] (1.5 h) was “c-Fos activation had occurred in PVH and NTS but not AP”. The “c-Fos activation 24 h after ICV injection” value in series [13] (24 h) was “not present in any of the three brain regions”. Also, the “plasma insulin levels at 1 hour” value in series [14] (SC 0.1 mg/kg) is on record as “increased plasma insulin levels”. In addition, the “beginning of blood glucose effect after injection” value in series [14] (SC 1 and 10 mg/kg) was determined as 1 h. Also, the “duration of increased plasma insulin levels” value in series [14] (SC 1 and 10 mg/kg) is ≥ 4 h. Besides, the blood glucose in [14] (SC both 1 and 10 mg/kg, ad libitum, from 358±23) came out at 115 ± 18 mg/dL. Further, in series [14] (SC highest dose), the “duration of effect on blood glucose” value was “at least 12 hours”. Besides, the “duration of blood glucose lowering” value in [14] (SC low dose 0.1 mg/kg) worked out at 4 h.
